# Measured values taken from ChEMBL document CHEMBL1142398, “Chemical stability of the peroxide bond enables diversified synthesis of potent tetraoxane antimalarials” (J Med Chem, 2008).
# Key:
# [1] = Metabolic stability assessed as half life in human liver microsomes; type: ADME, Microsome
# [2] = Metabolic stability assessed as half life in mouse liver microsomes; type: ADME, Microsome
# Plasmodium berghei [3] = assay: Antimalarial activity against Plasmodium berghei KBG173 infected CD1 mice (Mus musculus) at 320 mg/kg/day peroral dose as survival time after 3-5 days; type: functional; conditions: route oral
# Plasmodium berghei [4] = assay: Antimalarial activity against Plasmodium berghei KBG173 infected CD1 mice (Mus musculus) at 80 mg/kg/day peroral dose as survival time after 3-5 days; type: functional; conditions: route oral
# Plasmodium berghei [5] = assay: Antimalarial activity against Plasmodium berghei KBG173 infected CD1 mice (Mus musculus) at 20 mg/kg/day peroral dose as survival time after 3-5 days; type: functional; conditions: route oral
# Plasmodium falciparum [6] = assay: microbe, parasite or virus in culture; conditions: D6
# Description: Antimalarial activity against Plasmodium falciparum D6
# Plasmodium falciparum [7] = assay: microbe, parasite or virus in culture; conditions: W2
# Description: Antimalarial activity against Plasmodium falciparum W2
# Plasmodium falciparum [8] = assay: microbe, parasite or virus in culture; conditions: TM91C235
# Description: Antimalarial activity against multidrug-resistant Plasmodium falciparum TM91C235
# [9] = Antiproliferative activity against human HL60(TB) cells after 48 hrs; type: functional, HL-60(TB); conditions: HL-60, 48 h
# MOLT-4 = assay: Antiproliferative activity against human MOLT4 cells after 48 hrs; type: functional; conditions: MOLT-4, 48 h
# SR = assay: Antiproliferative activity against human SR cells after 48 hrs; type: functional
# EKVX = assay: Antiproliferative activity against human EKVX cells after 48 hrs; type: functional
# HOP-92 = assay: Antiproliferative activity against human HOP92 cells after 48 hrs; type: functional; conditions: HOP-92, 48 h
# NCI-H460 = assay: Antiproliferative activity against human NCI-H460 cells after 48 hrs; type: functional; conditions: NCI-H460, 48 h
# SF-295 = assay: Antiproliferative activity against human SF295 cells after 48 hrs; type: functional; conditions: SF-295, 48 h
# SF-539 = assay: Antiproliferative activity against human SF539 cells after 48 hrs; type: functional; conditions: SF-539, 48 h
# U-251 = assay: Antiproliferative activity against human U251 cells after 48 hrs; type: functional; conditions: U-251, 48 h
# LOX IMVI = assay: Antiproliferative activity against human LOXIMVI cells after 48 hrs; type: functional
# SK-MEL-2 = assay: Antiproliferative activity against human SKMEL2 cells after 48 hrs; type: functional; conditions: SK-MEL-2, 48 h
# IGROV-1 = assay: Antiproliferative activity against human IGROV1 cells after 48 hrs; type: functional; conditions: IGROV-1, 48 h
# 786-0 = assay: Antiproliferative activity against human 786-0 cells after 48 hrs; type: functional; conditions: 786-0, 48 h
# UO-31 = assay: Antiproliferative activity against human UO31 cells after 48 hrs; type: functional; conditions: UO-31, 48 h
# PC-3 = assay: Antiproliferative activity against human PC3 cells after 48 hrs; type: functional; conditions: PC-3, 48 h
# DU-145 = assay: Antiproliferative activity against human DU145 cells after 48 hrs; type: functional; conditions: DU-145, 48 h
# NCI/ADR-RES = assay: Antiproliferative activity against human NCI/ADR-RES cells after 48 hrs; type: functional
# T47D = assay: Antiproliferative activity against human T47D cells after 48 hrs; type: functional
# CCRF-CEM = assay: Antiproliferative activity against human CCRF-CEM cells after 48 hrs; type: functional
# [10] = read-out: LC50 (the source's name)
smiles,measurement,setting,value
CN(C)CCNC(=O)C1CCC2(CC1)OOC1(CCCCC1)OO2,half-life,[1],> 1 h
same,half-life,[2],> 1 h
same,Survival,Plasmodium berghei [3],17.4 days
same,Survival,Plasmodium berghei [4],7.6 days
same,Survival,Plasmodium berghei [5],7.2 days
same,IC50,Plasmodium falciparum [6],11.2 nM
same,IC90,Plasmodium falciparum [6],15.1 nM
same,IC50,Plasmodium falciparum [7],9.72 nM
same,IC90,Plasmodium falciparum [7],17.9 nM
same,IC50,Plasmodium falciparum [8],7.24 nM
same,IC90,Plasmodium falciparum [8],12.8 nM
CC(=O)O[C@H]1C[C@H]2[C@@H]([C@H](OC(C)=O)C[C@@H]3CC4(CC[C@@]32C)OOC2(CCCCC2)OO4)[C@@H]2CC[C@H]([C@H](C)CCCN=[N+]=[N-])[C@@]12C,IC50,Plasmodium falciparum [6],8.6 nM
same,IC90,Plasmodium falciparum [6],13.3 nM
same,IC50,Plasmodium falciparum [7],6.3 nM
same,IC90,Plasmodium falciparum [7],21.6 nM
same,IC50,Plasmodium falciparum [8],13.9 nM
same,IC90,Plasmodium falciparum [8],20.6 nM
COC(=O)C1CCC2(CC1)OOC1(CCCCC1)OO2,IC50,Plasmodium falciparum [6],29.2 nM
same,IC90,Plasmodium falciparum [6],83.9 nM
same,IC50,Plasmodium falciparum [7],40.4 nM
same,IC90,Plasmodium falciparum [7],62.5 nM
same,IC50,Plasmodium falciparum [8],27 nM
same,IC90,Plasmodium falciparum [8],110 nM
O=C(O)C1CCC2(CC1)OOC1(CCCCC1)OO2,IC50,Plasmodium falciparum [6],429 nM
same,IC90,Plasmodium falciparum [6],467 nM
same,IC50,Plasmodium falciparum [7],413 nM
same,IC90,Plasmodium falciparum [7],520 nM
same,IC50,Plasmodium falciparum [8],411 nM
same,IC90,Plasmodium falciparum [8],523 nM
COC(=O)CC[C@@H](C)[C@H]1CC[C@H]2[C@@H]3[C@H](OC(C)=O)C[C@@H]4CC5(CC[C@]4(C)[C@H]3C[C@H](OC(C)=O)[C@]12C)OOC1(CCCCC1)OO5,IC50,Plasmodium falciparum [6],21.5 nM
same,IC50,Plasmodium falciparum [7],17 nM
C[C@H](CCCO)[C@H]1CC[C@H]2[C@@H]3[C@H](O)C[C@@H]4CC5(CC[C@]4(C)[C@H]3C[C@H](O)[C@]12C)OOC1(CCCCC1)OO5,GI50,[9],150 nM
same,TGI,[9],310 nM
same,CC50,[9]; [10],620 nM
same,GI50,MOLT-4,180 nM
same,TGI,MOLT-4,410 nM
same,CC50,MOLT-4; [10],960 nM
same,GI50,SR,160 nM
same,TGI,SR,340 nM
same,CC50,SR; [10],720 nM
same,GI50,EKVX,140 nM
same,TGI,EKVX,310 nM
same,CC50,EKVX; [10],650 nM
same,GI50,HOP-92,140 nM
same,TGI,HOP-92,320 nM
same,CC50,HOP-92; [10],730 nM
same,GI50,NCI-H460,240 nM
same,TGI,NCI-H460,620 nM
same,CC50,NCI-H460; [10],2680 nM
same,GI50,SF-295,170 nM
same,TGI,SF-295,330 nM
same,CC50,SF-295; [10],660 nM
same,GI50,SF-539,170 nM
same,TGI,SF-539,320 nM
same,CC50,SF-539; [10],590 nM
same,GI50,U-251,210 nM
same,TGI,U-251,460 nM
same,CC50,U-251; [10],980 nM
same,GI50,LOX IMVI,20 nM
same,TGI,LOX IMVI,30 nM
same,CC50,LOX IMVI; [10],60 nM
same,GI50,SK-MEL-2,200 nM
same,TGI,SK-MEL-2,390 nM
same,CC50,SK-MEL-2; [10],730 nM
same,GI50,IGROV-1,< 10 nM
same,TGI,IGROV-1,10 nM
same,CC50,IGROV-1; [10],60 nM
same,GI50,786-0,230 nM
same,TGI,786-0,540 nM
same,CC50,786-0; [10],2010 nM
same,GI50,UO-31,40 nM
same,TGI,UO-31,170 nM
same,CC50,UO-31; [10],610 nM
same,GI50,PC-3,290 nM
same,TGI,PC-3,990 nM
same,CC50,PC-3; [10],3410 nM
same,GI50,DU-145,110 nM
same,TGI,DU-145,230 nM
same,CC50,DU-145; [10],480 nM
same,GI50,NCI/ADR-RES,250 nM
same,TGI,NCI/ADR-RES,590 nM
same,CC50,NCI/ADR-RES; [10],4270 nM
same,GI50,T47D,330 nM
same,TGI,T47D,930 nM
same,CC50,T47D; [10],5300 nM
same,GI50,CCRF-CEM,100 nM
same,TGI,CCRF-CEM,240 nM
same,CC50,CCRF-CEM; [10],560 nM
same,IC50,Plasmodium falciparum [6],130 nM
same,IC90,Plasmodium falciparum [6],623 nM
same,IC50,Plasmodium falciparum [7],109 nM
same,IC90,Plasmodium falciparum [7],298 nM
same,IC50,Plasmodium falciparum [8],166 nM
same,IC90,Plasmodium falciparum [8],340 nM
CC(=O)OCCC[C@@H](C)[C@H]1CC[C@H]2[C@@H]3[C@H](OC(C)=O)C[C@@H]4CC5(CC[C@]4(C)[C@H]3C[C@H](OC(C)=O)[C@]12C)OOC1(CCCCC1)OO5,IC50,Plasmodium falciparum [6],15.9 nM
same,IC90,Plasmodium falciparum [6],28.4 nM
same,IC50,Plasmodium falciparum [7],11.6 nM
same,IC90,Plasmodium falciparum [7],26.3 nM
same,IC50,Plasmodium falciparum [8],19.2 nM
same,IC90,Plasmodium falciparum [8],29.3 nM
NC(=O)C1CCC2(CC1)OOC1(CCCCC1)OO2,IC50,Plasmodium falciparum [6],24 nM
same,IC90,Plasmodium falciparum [6],42.8 nM
same,IC50,Plasmodium falciparum [7],20.2 nM
same,IC90,Plasmodium falciparum [7],40.4 nM
same,IC50,Plasmodium falciparum [8],27.2 nM
same,IC90,Plasmodium falciparum [8],55.6 nM
C[C@@H]1CC[C@H]2[C@@H](C)C(=O)O[C@@H]3O[C@@]4(C)CC[C@@H]1[C@]32OO4 [ARTEMISININ],IC50,Plasmodium falciparum [6],9 nM
same,IC90,Plasmodium falciparum [6],12.8 nM
same,IC50,Plasmodium falciparum [7],6.7 nM
same,IC90,Plasmodium falciparum [7],11.5 nM
same,IC50,Plasmodium falciparum [8],13 nM
same,IC90,Plasmodium falciparum [8],17.4 nM
CCN(CC)CCCC(C)Nc1ccnc2cc(Cl)ccc12 (stereo not given) [CHLOROQUINE],IC90,Plasmodium falciparum [6],17.6 nM
same,IC90,Plasmodium falciparum [7],1020 nM
same,IC90,Plasmodium falciparum [8],345 nM
O[C@@H](c1cc(C(F)(F)F)nc2c(C(F)(F)F)cccc12)[C@H]1CCCCN1 [MEFLOQUINE],IC50,Plasmodium falciparum [6],7.34 nM
same,IC90,Plasmodium falciparum [6],19.5 nM
same,IC90,Plasmodium falciparum [7],9.45 nM
same,IC50,Plasmodium falciparum [8],22.4 nM
same,IC90,Plasmodium falciparum [8],50.1 nM
